This is an account of results in patent publication US11453663B2, “Substituted propanamides as inhibitors of nucleases” (MASARYKOVA UNIVERZITA, priority 2018, dated 2022).

The test system of one experiment is DR-GFP U2OS cells. Put plainly: HR assay (GFP fluorescence by flow cytometry after I-SceI transfection). The format is cell-based. To be noted: Homo sapiens, 25 μM inhibitor, 72 hours after transfection. As for the experimental part: DR-GFP U2OS cells (Methods in Molecular Biology 2012, 920, 379.) were transfected with 2.5 μg of I-SceI-expressing pCAGGS vector and treated with the inhibitors at 25 μM concentration. 72 hours after the transfection, the cells were trypsinized and resuspended in 3% BSA in PBS. GFP fluorescence detection was carried out using a BD FACSVerse flow cytometer and data analyzed with FlowJo software.
(A flow cytometer gives signals particle by particle.)

In experiment [1] the test system is Phosphorylated RPA32 S4/S8 in U2OS cells. Put plainly: RPA assay (camptothecin-induced RPA phosphorylation). Type of experiment: cell-based. To be noted: Homo sapiens, 1 h pre-treatment, 1 uM camptothecin 1 h; for inhibition at 10 µM: 10 μM inhibitor. The protocol: U2OS cells were pre-treated for 1 h with MRE11 inhibitors followed by addition of 1 uM camptothecin for 1 h. Cells were lysed in SDS-PAGE loading buffer, sonicated and boiled at 70° C. for 10 min. Equal amounts of protein (50-100 μg) were analysed by Tris-glycine gel electrophoresis Expression levels were quantified using Multi Gauge software and expressed relative to loading control. Phosphorylated RPA32 S4/S8 (A300-245A, Bethyl Laboratories) 1:1000 dilution was used.

The next experiment concerns the target MRE11 (Homo sapiens (Human), UniProt P49959). Put plainly: HTS nuclease assay (fluorescence-quenched 5′ overhang DNA substrate cleavage). The format is biochemical. The settings on record: 18 nM MRE11, 40 nM DNA substrate, analysis at t=4 h. The protocol:
DNA Substrate Preparation
The DNA substrate is prepared by mixing the oligonucleotides listed below in a 1:1 ratio to reach a final concentration of 6 μM in a buffer containing 50 mM Tris pH 7.5, 100 mM NaCl and 8 mM MgCl2.
The mixture is heat for 3 min at 65° C. and let to cool down slowly to RT. Then it is stored at −20° C.
This substrate is a 5′ overhang, which is a preferred substrate of MRE11. […] The fluorescence increases upon substrate cleavage by MRE11, when separation of the two labels occur.
The conditions of the assay are as follows:
Total reaction volume: 5 μL
DNA substrate concentration in the reaction: 40 nM
Inhibitor concentration range tested: 7 nM-50 μM
Each plate contains a series of high and low signal control wells, where no compound is added:
High signal: MRE11+DNA substrate
Low signal: DNA substrate only
These are used during data evaluation.
Two Extra Assay Controls:
1) To check whether unwinding of DNA by the compounds alone occurs.
The DNA substrate [CY5+BBQ(650)] is mixed with the compounds with no protein present.
The CY5 single stranded oligo is mixed with the compounds with no protein present.
The layout of the plates is created by the in-house software (CZ-Openscreen Prague) and this information is transferred to the robotic HTS station.
The reaction is started by the addition of DNA and the reaction time is counted from that moment, including a 15 min delay. Ten timepoints are measured:
The assay data analysis was performed at t=4 h. This corresponds to the time when the reaction is close to its maximum.
The data analysis was performed using the in-house software (CZ-Openscreen Prague) to obtain IC50 for each compound.

Each structure is given as a SMILES string. Some results are limits rather than exact numbers.

MRE11, sequence (P49959 whole entry): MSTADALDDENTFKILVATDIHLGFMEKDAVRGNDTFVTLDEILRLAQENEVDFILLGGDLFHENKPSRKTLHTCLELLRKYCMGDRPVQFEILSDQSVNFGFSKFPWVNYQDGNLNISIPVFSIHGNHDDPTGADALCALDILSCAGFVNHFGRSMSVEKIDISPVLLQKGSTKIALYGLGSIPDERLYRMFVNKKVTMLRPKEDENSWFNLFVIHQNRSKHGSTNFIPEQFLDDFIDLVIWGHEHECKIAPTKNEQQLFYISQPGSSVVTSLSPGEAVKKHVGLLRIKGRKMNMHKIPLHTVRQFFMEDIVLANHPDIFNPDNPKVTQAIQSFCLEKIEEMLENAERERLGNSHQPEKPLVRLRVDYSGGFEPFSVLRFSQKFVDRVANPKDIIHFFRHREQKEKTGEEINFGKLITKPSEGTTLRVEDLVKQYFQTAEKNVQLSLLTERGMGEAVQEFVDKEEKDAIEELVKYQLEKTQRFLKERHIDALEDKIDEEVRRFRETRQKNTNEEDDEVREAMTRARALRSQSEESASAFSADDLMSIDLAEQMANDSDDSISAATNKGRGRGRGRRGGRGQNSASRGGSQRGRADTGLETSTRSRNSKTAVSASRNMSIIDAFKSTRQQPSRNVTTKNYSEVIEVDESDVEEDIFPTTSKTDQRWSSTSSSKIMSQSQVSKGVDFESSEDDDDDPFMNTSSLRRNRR

Broadly, the inhibition is the share of the control response that was lost under treatment. In general, IC50 refers to the concentration that gives 50% inhibition. As to `N#CC(Cc1ccc(O)c(O)c1Br)C(=O)Nc1nc(-c2ccccc2)cs1` (stereo not shown) [Preparative Example 148, 3-(2-bromo-3,4-dihydroxyphenyl)-2-cyano-N-(4-phenylthiazol-2-yl)propanamide], the values for the inhibition at 25 µM (with DR-GFP U2OS cells; in experiment [1] (25 μM inhibitor)) were > 75% and 90%, respectively. On MRE11, the half-inhibitory concentration (IC50) was < 2 µM.

`N#CC(Cc1ccc(O)c(O)c1)C(=O)Nc1nc(-c2ccc(Br)cc2)cs1` (stereo not shown) [Preparative Example 129, N-(4-(4-bromophenyl)thiazol-2-yl)-2-cyano-3-(3,4-dihydroxyphenyl)propanamide]: the inhibition at 25 µM in the experiment with DR-GFP U2OS cells is > 75%. Further, the inhibition at 10 µM in experiment [1] is 60%. Further, the IC50 on MRE11 lay within 2 to 10 µM.

`N#CC(Cc1ccc(O)c(O)c1)C(=O)Nc1nc(-c2ccc(OC(F)(F)F)cc2)cs1` (stereo not shown) [Preparative Example 136, 2-cyano-3-(3,4-dihydroxyphenyl)-N-(4-(4-(trifluoromethoxy)phenyl)thiazol-2-yl)propanamide]: the inhibition at 25 µM in the experiment on DR-GFP U2OS cells was > 75%. For the same compound, the inhibition at 10 µM in experiment [1] was 40%. On MRE11, the IC50 lay within 2 to 10 µM.

Turning to `CC(C)(C)c1ccc(-c2csc(NC(=O)C(C#N)Cc3ccc(O)c(O)c3)n2)cc1` (stereo not shown) [Preparative Example 140, N-(4-(4-(tert-butyl)phenyl)thiazol-2-yl)-2-cyano-3-(3,4-dihydroxyphenyl)propanamide], the inhibition at 25 µM in the experiment on DR-GFP U2OS cells is > 75%. The inhibition at 10 µM in experiment [1] came out at 40%. Also, the IC50 against MRE11 lay within 2 to 10 µM.

For the compound `CC(C)(C)c1cc(CC(C#N)C(=O)Nc2nc(-c3ccccc3)cs2)cc(C(C)(C)C)c1O` (stereo not shown) [Preparative Example 139, 2-cyano-3-(3,5-di-tert-butyl-4-hydroxyphenyl)-N-(4-phenylthiazol-2-yl)propanamide], the inhibition at 25 µM in the experiment on DR-GFP U2OS cells is > 75%. The inhibition at 10 µM in experiment [1] came out at 70%.

Consider `CC(C)(C)c1cc(CC(C#N)C(=O)Nc2nc(-c3ccccn3)cs2)cc(C(C)(C)C)c1O` (stereo not shown) [Preparative Example 169, 2-cyano-3-(3,5-di-tert-butyl-4-hydroxyphenyl)-N-(4-(pyridin-2-yl)thiazol-2-yl)propanamide], for which the inhibition at 25 µM in the experiment on DR-GFP U2OS cells was > 75%. Moreover, the IC50 at MRE11 was in the range of 10 to 90 µM.
